Measurements: the supplement of paper PMC10307832

What was measured:
Test in all cases: relative viability (nuclei count vs DMSO), 5 days (fraction); higher = more cells survive
[1] = compound: C#Cc1cccc(Nc2ncnc3cc(OC)c(OCCCCCCC(=O)NO)cc23)c1 [CUDC-101] + Nc1nc2[nH]cc(CCc3ccc(C(=O)N[C@@H](CCC(=O)O)C(=O)O)cc3)c2c(=O)[nH]1 [Pemetrexed] (partner 0.2 µM)
In short: (§1)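 Lung cancer cell lines in 1536-well plates got either a single drug or a fixed anchor-drug dose together with five library-drug doses (not always all listed) in √10 steps, by pin tool, on the day after seeding. Nuclei were counted after 5 days, and relative viability is the treated-to-vehicle ratio of nuclei counts. Values are medians of duplicate plates.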

[2] = compound: C1=CC=C2C(=C1)N=C(S2)C(C#N)C3=NC(=NC=C3)NCCC4=CN=CC=C4 + C[C@]1(O)C[C@@H](c2nc(-c3ccc4ccc(-c5ccccc5)nc4c3)c3c(N)nccn32)C1 [Linsitinib] (partner 1 µM)
In short: as §1

[3] = compound: COc1cc2/c(=N/c3ccc(Br)cc3F)nc[nH]c2cc1OCC1CCN(C)CC1 [Vandetanib] + CS(=O)(=O)CCNCc1ccc(-c2ccc3ncnc(Nc4ccc(OCc5cccc(F)c5)c(Cl)c4)c3c2)o1 [Lapatinib] (partner 2 µM)
In short: as §1

[4] = compound: COc1cc(N2CCC(N3CCN(C)CC3)CC2)ccc1Nc1ncc(Cl)c(Nc2ccccc2S(=O)(=O)C(C)C)n1 [NVP-TAE684] + C[C@]1(O)C[C@@H](c2nc(-c3ccc4ccc(-c5ccccc5)nc4c3)c3c(N)nccn32)C1 [Linsitinib] (partner 1 µM)
In short: as §1

UMC-11
relative viability ([1]; first compound 0.01 µM): 0.78
relative viability ([1]; first compound 0.03162 µM): 0.72
relative viability ([1]; first compound 0.1 µM): 0.639
relative viability ([1]; first compound 0.3162 µM): 0.415
relative viability ([1]; first compound 1 µM): 0.219
relative viability ([2]; first compound 0.005 µM): 0.809
relative viability ([2]; first compound 0.01581 µM): 0.968
relative viability ([2]; first compound 0.05 µM): 0.967
relative viability ([2]; first compound 0.1581 µM): 1.1
relative viability ([2]; first compound 0.5 µM): 0.917
relative viability ([3]; first compound 0.02 µM): 0.816
relative viability ([3]; first compound 0.06325 µM): 0.961
relative viability ([3]; first compound 0.2 µM): 0.664
relative viability ([3]; first compound 0.6325 µM): 0.892
relative viability ([3]; first compound 2 µM): 1.01
relative viability ([4]; first compound 0.2 µM): 1.14
relative viability ([4]; first compound 0.6325 µM): 0.904
relative viability ([4]; first compound 2 µM): 0.282
